US10294496B2, “Methods for biosynthesizing 1,3 butadiene” (INVISTA North America S.á r.l., priority 2013, dated 2019)

Biological target: T1, linalool dehydratase (EC 4.2.1.127) (Castellaniella defragrans, UniProt E1XUJ2)
T1 construct: His tag; made in house; host or cells: E. coli BL21 (pARZ4 vector)
Assay: Enzyme activity of linalool dehydratase using 3-buten-2-ol as substrate (headspace GC-MS for butadiene)
Assay type: biochemical
Details: 11 mM 3-buten-2-ol, 25° C., purified his-tagged enzyme, butadiene in headspace by GC-MS
Source text: The his-tagged linalool dehydratase (EC 4.2.1.127) from Castellaniella defragrans was cloned into a pARZ4 vector and transformed into E. coli BL21. The resulting strain was cultivated and induced using […] (isopropylthio-β-galactoside) in a shake flask culture containing Luria Broth media and kanamycin selection pressure.
The cells from each of the induced shake flask cultures were harvested and pelleted by centrifugation. The cell pellet was resuspended and the cells were lysed. The cell debris was separated from the supernatant via centrifugation and filtered using a 0.2 μm filter. The enzyme was purified from the filtered supernatant using Ni-affinity chromatography and concentrated and buffer exchanged using a Vivaspin 15R Centrifugal Concentrator and Hi-trap Desalting column into 80 mM Tris buffer (pH=9).
Non-native enzyme activity assays were undertaken in a buffer containing 11 mM of 3-buten-2-ol at 25° C. The activity assays were undertaken in 2 mL septum-sealed vials, thereby allowing butadiene accumulation in the headspace. The reaction was initiated by adding 1 mL of purified enzyme to the assay buffer containing the substrate.
The headspace was sampled for butadiene analysis by GC-MS (gas chromatography-mass spectrometry). […] Also, the ion peak areas were above the limit of quantitation for the GC-MS.

T1 sequence (E1XUJ2 27-397): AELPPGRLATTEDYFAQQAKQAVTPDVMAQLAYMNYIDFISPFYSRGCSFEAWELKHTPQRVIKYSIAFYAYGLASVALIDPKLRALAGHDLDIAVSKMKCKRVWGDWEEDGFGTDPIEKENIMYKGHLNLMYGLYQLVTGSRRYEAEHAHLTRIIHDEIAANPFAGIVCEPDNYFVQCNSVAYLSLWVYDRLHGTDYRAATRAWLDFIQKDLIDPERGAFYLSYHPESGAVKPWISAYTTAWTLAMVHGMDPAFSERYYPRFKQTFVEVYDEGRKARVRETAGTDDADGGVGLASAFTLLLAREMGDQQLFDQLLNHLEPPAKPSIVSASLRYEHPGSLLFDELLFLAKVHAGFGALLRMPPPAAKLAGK

## C=CC(C)O (stereo not shown) [3-buten-2-ol]
  non-native enzyme activity: substrate acceptance, synthesis of butadiene: accepts 3-buten-2-ol as a substrate
